The supplement of paper PMC13380429

Key:
Settings in all cases: 72 h
HepG2 [1] = assay: cell viability relative to DMSO; higher = less toxic
Vero E6 [2] = assay: as above
Caco-2 [3] = assay: as above
Calu-3 [4] = assay: as above
U2OS [5] = assay: as above
HepG2 [6] = assay: relative viability EC50 (midpoint between 100% and the lowest measured viability); higher = less toxic
Vero E6 [7] = assay: as above
Caco-2 [8] = assay: as above
Calu-3 [9] = assay: as above
U2OS [10] = assay: as above
HepG2 [11] = assay: drug sensitivity score (DSS) for viability; higher = more toxic; extreme values may be limits of the assay
Vero E6 [12] = assay: as above
Caco-2 [13] = assay: as above
Calu-3 [14] = assay: as above
U2OS [15] = assay: as above

Row | SMILES | cell viability (HepG2 [1]; 1 nM) [%] | cell viability (HepG2 [1]; 10 nM) [%] | cell viability (HepG2 [1]; 100 nM) [%] | cell viability (HepG2 [1]; 1000 nM) [%] | cell viability (HepG2 [1]; 10000 nM) [%] | cell viability (Vero E6 [2]; 1 nM) [%] | cell viability (Vero E6 [2]; 10 nM) [%] | cell viability (Vero E6 [2]; 100 nM) [%] | cell viability (Vero E6 [2]; 1000 nM) [%] | cell viability (Vero E6 [2]; 10000 nM) [%] | cell viability (Caco-2 [3]; 1 nM) [%] | cell viability (Caco-2 [3]; 10 nM) [%] | cell viability (Caco-2 [3]; 100 nM) [%] | cell viability (Caco-2 [3]; 1000 nM) [%] | cell viability (Caco-2 [3]; 10000 nM) [%] | cell viability (Calu-3 [4]; 1 nM) [%] | cell viability (Calu-3 [4]; 10 nM) [%] | cell viability (Calu-3 [4]; 100 nM) [%] | cell viability (Calu-3 [4]; 1000 nM) [%] | cell viability (Calu-3 [4]; 10000 nM) [%] | cell viability (U2OS [5]; 1 nM) [%] | cell viability (U2OS [5]; 10 nM) [%] | cell viability (U2OS [5]; 100 nM) [%] | cell viability (U2OS [5]; 1000 nM) [%] | cell viability (U2OS [5]; 10000 nM) [%] | relative viability EC50 (HepG2 [6]) [µM] | relative viability EC50 (Vero E6 [7]) [µM] | relative viability EC50 (Caco-2 [8]) [µM] | relative viability EC50 (Calu-3 [9]) [µM] | relative viability EC50 (U2OS [10]) [µM] | drug sensitivity score (HepG2 [11]) | drug sensitivity score (Vero E6 [12]) | drug sensitivity score (Caco-2 [13]) | drug sensitivity score (Calu-3 [14]) | drug sensitivity score (U2OS [15])
1 | C=CC1=C(C)C2=CC3=NC(=C(CC(=O)O)C4=NC(=C(C)C4=C(O)O)C=c4[nH]c(c(C)c4CC)=CC1=N2)C(CCC(=O)O)C3C (stereo not given) [chlorophyllin] | 97.3 | 106 | 115 | 112 | 106 | 100 | 99.9 | 95.7 | 96.9 | 92.6 | 102 | 104 | 96.6 | 91 | 91.4 | 111 | 89.7 | 93.2 | 101 | 116 | 97.7 | 96.1 | 100 | 96 | 103 | > 10 | > 10 | > 10 | > 10 | > 10 | 0 | 0 | 0 | 0 | 0
2 | C[C@H](CCC(=O)O)[C@H]1CC[C@H]2[C@@H]3[C@H](O)C[C@@H]4C[C@H](O)CC[C@]4(C)[C@H]3C[C@H](O)[C@]12C [cholic-acid] | 112 | 97.5 | 96.3 | 94.2 | 102 | 102 | 102 | 100 | 100 | 99.4 | 93.3 | 92.3 | 95.3 | 100 | 93 | 87 | 91.1 | 88 | 99 | 96.9 | 97.3 | 100 | 93.5 | 102 | 96.5 | > 10 | > 10 | > 10 | > 10 | > 10 | 0 | 0 | 0 | 0 | 0
3 | O=c1cc(-c2ccccc2)oc2cc(O)cc(O)c12 [chrysin] | 88.5 | 102 | 93.5 | 100 | 104 | 92.5 | 102 | 87.9 | 94.8 | 111 | 99.4 | 86.9 | 102 | 91.9 | 94.4 | 94.5 | 92.9 | 106 | 91.7 | 102 | 98.4 | 97 | 101 | 97.4 | 99.2 | > 10 | > 10 | > 10 | > 10 | > 10 | 0 | 0 | 0 | 0 | 0
4 | NC(=O)C1=CN([C@@H]2O[C@H](COP(=O)(O)OP(=O)(O)OC[C@H]3O[C@@H](n4cnc5c(N)ncnc54)[C@H](O)[C@@H]3O)[C@@H](O)[C@H]2O)C=CC1 [coenzyme-I] | 93.3 | 103 | 89.4 | 111 | 90.2 | 93 | 96.4 | 89.3 | 97.2 | 105 | 103 | 94.2 | 88.7 | 98.7 | 108 | 91.4 | 92.2 | 100 | 93.2 | 97.3 | 103 | 97.5 | 101 | 95.9 | 113 | > 10 | > 10 | > 10 | > 10 | > 10 | 0 | 0 | 0 | 0 | 0
5 | N[C@@H]1CONC1=O [cycloserine-(D)] | 106 | 101 | 104 | 89.7 | 108 | 99.6 | 104 | 98.2 | 99.8 | 103 | 89.5 | 96.2 | 100 | 98.7 | 105 | 99.6 | 102 | 97.2 | 105 | 96.7 | 96.7 | 96.3 | 96.4 | 96.7 | 97 | > 10 | > 10 | > 10 | > 10 | > 10 | 0 | 0 | 0 | 0 | 0
6 | O=C1c2cccc(O)c2C(=O)c2c(O)cccc21 [dantron] | 102 | 105 | 105 | 97.9 | 93.8 | 98.5 | 89.2 | 100 | 93.2 | 83.5 | 107 | 92.6 | 88.7 | 91.2 | 101 | 103 | 97.5 | 96.1 | 98.6 | 88.4 | 94.3 | 98.4 | 97.7 | 103 | 99.8 | > 10 | > 10 | > 10 | > 10 | > 10 | 0 | 0.2 | 0 | 0.1 | 0
